Measured values as given in US8758816B2, “Compositions comprising azelastine and methods of use thereof” (priority 2004, dated 2014).

System: patients with seasonal allergic rhinitis (SAR)
Assay: MP 428 two-week randomized double-blind study: Total Nasal Symptom Score (TNSS), change from baseline
Assay type: in vivo, human
Design: key to Change from Baseline in AM TNSS, Mean / Change from Baseline in AM TNSS, LS Mean / Change from Baseline in AM TNSS, Median: TNSS sum of 4 symptoms each 0-3 (0=none, 3=severe); change from baseline
Description: A two-week, randomized, double-blind study, which evaluated the effects of the co-administration of ASTELIN® (azelastine hydrochloride (HCl)) and FLONASE® (fluticasone propionate) compared to either product alone in patients with seasonal allergic rhinitis (SAR) was conducted during the 2006 Texas mountain cedar season. After a 5-day placebo lead-in period, 151 patients with moderate-to-severe allergic rhinitis symptoms were randomized to either: (1) (49 total patients) ASTELIN® (azelastine hydrochloride (HCl)) plus placebo saline nasal spray 2 sprays per nostril, 15 minutes apart, twice daily (AM & PM); (2) (50 total patients) FLONASE® (fluticasone propionate) plus placebo saline nasal spray, 2 sprays per nostril, 15 minutes apart, once daily (AM) and two sessions of placebo saline nasal spray, 2 sprays per nostril, 15 minutes apart (PM); or (3) (52 total patients) the co-administration of ASTELIN® (azelastine hydrochloride (HCl)) 2 sprays per nostril plus FLONASE® (fluticasone propionate) 2 sprays per nostril (AM), 15 minutes apart, and ASTELIN® (azelastine hydrochloride (HCl)) 2 sprays per nostril plus placebo saline nasal spray, 15 minutes apart, (PM) for a 2-week double-blind treatment period.
The primary efficacy variable was the change from baseline in the Total Nasal Symptom Score (TNSS), which comprised sneezing, itchy nose, runny nose, and nasal congestion (individual symptoms scores were assigned a value between 0 and 3, where 0=no symptoms and 3=severe symptoms). This study was not statistically designed to assess the differences between ASTELIN® and FLONASE®.

[1] = Day 2, Intent-to-Treat Population
[2] = Day 3, Intent-to-Treat Population
[3] = Day 4, Intent-to-Treat Population
[4] = Day 5, Intent-to-Treat Population

In the case of CCC(=O)O[C@]1(C(=O)SCF)[C@H](C)C[C@H]2[C@@H]3C[C@H](F)C4=CC(=O)C=C[C@]4(C)[C@@]3(F)[C@@H](O)C[C@@]21C [Fluticasone, fluticasone propionate], the “Primary Reason for Discontinuation From Study: Treatment Failure” value (All Randomized Patients) is reported as 1 (2.0) N (%), the “Change from Baseline in AM TNSS, LS Mean” value [1] is reported as −1.58 and the “Change from Baseline in AM TNSS, Mean” value [1] is reported as −1.65. The “Change from Baseline in AM TNSS, Median” value [1] was −1.00, the “Change from Baseline in AM and PM Combined TNSS, Mean” value [1] was −3.24 and the “Change from Baseline in AM and PM Combined TNSS, Median” value [1] was −2.00. The “Change from Baseline in PM TNSS, LS Mean” value [1] was −1.54, the “Change from Baseline in PM TNSS, Mean” value [1] was −1.59 and the “Change from Baseline in PM TNSS, Median” value [1] was −1.00. For the same compound, the “Percent Change from Baseline in AM TNSS, LS Mean” value [1] was −16.43%, the “Percent Change from Baseline in AM TNSS, Mean” value [1] was −17.21% and the “Percent Change from Baseline in AM TNSS, Median” value [1] was −11.11%. For the same compound, the “Percent Change from Baseline in AM and PM Combined TNSS, LS Mean” value [1] was −16.35%, the “Percent Change from Baseline in AM and PM Combined TNSS, Mean” value [1] was −16.91% and the “Percent Change from Baseline in AM and PM Combined TNSS, Median” value [1] was −12.46%. For the same compound, the “Percent Change from Baseline in PM TNSS, LS Mean” value [1] was −16.05%, the “Percent Change from Baseline in PM TNSS, Mean” value [1] was −16.52% and the “Percent Change from Baseline in PM TNSS, Median” value [1] was −11.11%. For the same compound, the “Change from Baseline in AM and PM Combined TNSS, LS Mean” value (Day 2, Intent-to-Treat Population, ANCOVA model) was −3.12, the “Change from Baseline in AM and PM Combined TNSS, LS Mean” value (Day 2, Per-Protocol Population) was −3.10 and the “Change from Baseline in AM and PM Combined TNSS, Mean” value (Day 2, Per-Protocol Population) was −3.27. For the same compound, the “Change from Baseline in AM and PM Combined TNSS, Median” value (Day 2, Per-Protocol Population) was −2.00, the “Percent Change from Baseline in AM and PM Combined TNSS, LS Mean” value (Day 2, Per-Protocol Population) was −16.38% and the “Percent Change from Baseline in AM and PM Combined TNSS, Mean” value (Day 2, Per-Protocol Population) was −17.11%. The “Percent Change from Baseline in AM and PM Combined TNSS, Median” value (Day 2, Per-Protocol Population) was −12.46%, the “Change from Baseline in AM TNSS, LS Mean” value [2] was −2.01 and the “Change from Baseline in AM TNSS, Mean” value [2] was −2.04. The “Change from Baseline in AM TNSS, Median” value [2] was −1.50, the “Change from Baseline in AM and PM Combined TNSS, Mean” value [2] was −4.12 and the “Change from Baseline in AM and PM Combined TNSS, Median” value [2] was −3.20. For the same compound, the “Change from Baseline in PM TNSS, LS Mean” value [2] was −2.08, the “Change from Baseline in PM TNSS, Mean” value [2] was −2.08 and the “Change from Baseline in PM TNSS, Median” value [2] was −1.80. The “Percent Change from Baseline in AM TNSS, LS Mean” value [2] was −21.72%, the “Percent Change from Baseline in AM TNSS, Mean” value [2] was −22.09% and the “Percent Change from Baseline in AM TNSS, Median” value [2] was −14.29%. The “Percent Change from Baseline in AM and PM Combined TNSS, LS Mean” value [2] was −22.17%, the “Percent Change from Baseline in AM and PM Combined TNSS, Mean” value [2] was −22.26% and the “Percent Change from Baseline in AM and PM Combined TNSS, Median” value [2] was −16.67%. For the same compound, the “Percent Change from Baseline in PM TNSS, LS Mean” value [2] was −22.22%, the “Percent Change from Baseline in PM TNSS, Mean” value [2] was −22.28% and the “Percent Change from Baseline in PM TNSS, Median” value [2] was −20.00%. The “Change from Baseline in AM and PM Combined TNSS, LS Mean” value (Day 3, Intent-to-Treat Population, ANCOVA model) was −4.09, the “Change from Baseline in AM and PM Combined TNSS, LS Mean” value (Day 3, Per-Protocol Population) was −4.18 and the “Change from Baseline in AM and PM Combined TNSS, Mean” value (Day 3, Per-Protocol Population) was −4.25. The “Change from Baseline in AM and PM Combined TNSS, Median” value (Day 3, Per-Protocol Population) was −3.47, the “Percent Change from Baseline in AM and PM Combined TNSS, LS Mean” value (Day 3, Per-Protocol Population) was −22.68% and the “Percent Change from Baseline in AM and PM Combined TNSS, Mean” value (Day 3, Per-Protocol Population) was −22.87%. For the same compound, the “Percent Change from Baseline in AM and PM Combined TNSS, Median” value (Day 3, Per-Protocol Population) was −16.67%, the “Change from Baseline in AM TNSS, LS Mean” value [3] was −2.43 and the “Change from Baseline in AM TNSS, Mean” value [3] was −2.41. The “Change from Baseline in AM TNSS, Median” value [3] was −2.67, the “Change from Baseline in AM and PM Combined TNSS, Mean” value [3] was −4.53 and the “Change from Baseline in AM and PM Combined TNSS, Median” value [3] was −4.17. For the same compound, the “Change from Baseline in PM TNSS, LS Mean” value [3] was −2.10, the “Change from Baseline in PM TNSS, Mean” value [3] was −2.12 and the “Change from Baseline in PM TNSS, Median” value [3] was −1.80. For the same compound, the “Percent Change from Baseline in AM TNSS, LS Mean” value [3] was −25.32%, the “Percent Change from Baseline in AM TNSS, Mean” value [3] was −25.07% and the “Percent Change from Baseline in AM TNSS, Median” value [3] was −27.27%. For the same compound, the “Percent Change from Baseline in AM and PM Combined TNSS, LS Mean” value [3] was −23.75%, the “Percent Change from Baseline in AM and PM Combined TNSS, Mean” value [3] was −23.67% and the “Percent Change from Baseline in AM and PM Combined TNSS, Median” value [3] was −23.60%. For the same compound, the “Percent Change from Baseline in PM TNSS, LS Mean” value [3] was −21.91%, the “Percent Change from Baseline in PM TNSS, Mean” value [3] was −22.22% and the “Percent Change from Baseline in PM TNSS, Median” value [3] was −20.00%. For the same compound, the “Change from Baseline in AM and PM Combined TNSS, LS Mean” value (Day 4, Intent-to-Treat Population, ANCOVA model) was −4.53, the “Change from Baseline in AM and PM Combined TNSS, LS Mean” value (Day 4, Per-Protocol Population) was −4.61 and the “Change from Baseline in AM and PM Combined TNSS, Mean” value (Day 4, Per-Protocol Population) was −4.63. For the same compound, the “Change from Baseline in AM and PM Combined TNSS, Median” value (Day 4, Per-Protocol Population) was −4.17, the “Percent Change from Baseline in AM and PM Combined TNSS, LS Mean” value (Day 4, Per-Protocol Population) was −24.10% and the “Percent Change from Baseline in AM and PM Combined TNSS, Mean” value (Day 4, Per-Protocol Population) was −24.08%. For the same compound, the “Percent Change from Baseline in AM and PM Combined TNSS, Median” value (Day 4, Per-Protocol Population) was −23.60%, the “Change from Baseline in AM TNSS, LS Mean” value [4] was −2.59 and the “Change from Baseline in AM TNSS, Mean” value [4] was −2.57. For the same compound, the “Change from Baseline in AM TNSS, Median” value [4] was −2.00, the “Change from Baseline in AM and PM Combined TNSS, Mean” value [4] was −5.16 and the “Change from Baseline in AM and PM Combined TNSS, Median” value [4] was −4.40. The “Change from Baseline in PM TNSS, LS Mean” value [4] was −2.61, the “Change from Baseline in PM TNSS, Mean” value [4] was −2.59 and the “Change from Baseline in PM TNSS, Median” value [4] was −2.00. For the same compound, the “Percent Change from Baseline in AM TNSS, LS Mean” value [4] was −26.91%, the “Percent Change from Baseline in AM TNSS, Mean” value [4] was −26.62% and the “Percent Change from Baseline in AM TNSS, Median” value [4] was −19.23%. The “Percent Change from Baseline in AM and PM Combined TNSS, LS Mean” value [4] was −27.20%.
